In US20160106711A1, “3-3-Di-Substituted-Oxindoles as Inhibitors of Translation Initiation” (President and Fellows of Harvard College, priority 2012, published 2016):

System: eIF2•GTP•Met-tRNAi ternary complex
Assay: Ternary complex assay (ATF-4 assay), dual luciferase firefly/renilla ratio
Format: cell-based, mouse
Details: Mus musculus, 20 uM, read-out: ATF-4 Xmax
Excerpt: For assay development, a bi-directional plasmid was designed in which a common promoter/enhancer complex drives the transcription of firefly luciferase (F-luc) ORF fused to the 5′ untranslated region (UTR) of ATF-4, and of the renilla luciferase (R-luc) ORF fused to a 90-nucleotide 5′ UTR derived from the plasmid (FIG. 6A). Because the tetracycline-regulated transactivator ((tTA), required for driving transcription from this vector) is not normally expressed in the mammalian cells, stable KLN cancer cells were constructed that expressed tTA (KLN-tTA).
The KLN-tTA colonies that drove expression of reporter genes from pBISA-DL plasmid were selected by transient transfection and dual luciferase assay. One of these KLN-tTA cell lines was transfected with the pBISA-DL^(ATF-4) expression vector, stable colonies were selected by dual luciferase assay and expanded.
Plasmids and Ternary Complex Assay
(ATF-4 Assay). Briefly, bi-directional mammalian expression vector pBI (Clontech, CA) was modified to expand the multiple cloning sites (MCSs) and designated thereafter as pBISA. This vector contains seven copies of the tetracycline-regulated transactivator response element (TRE), which together act as core promoter/enhancer. The TRE is flanked on both sides by minimal human cytomegalovirus (CMV) minimal promoters allowing bi-directional transcription and two MCSs. Firefly and renilla luciferases were subcloned into MCS-I and MCS-II, respectively. This plasmid, designated pBISA-DL, transcribes two mRNAs that contain the 90 nucleotide plasmid derived 5′UTR (same sequence in both mRNAs), and the ORF encoding either firefly or renilla luciferase followed by a polyadenylation sequence as described in Ziegeler, G.; Ming, J.; Koseki, J. C.; Sevinc, S.; Chen, T.; Ergun, S.; Qin, X.; Aktas, B. H. J. Biol. Chem. 2010, 285, 15408 hereby incorporated by reference. This plasmid was further modified by inserting the 5′UTR of ATF-4 into MCS-I in front of the firefly luciferase mRNA. Transcription from this direction generates an mRNA that contains the firefly luciferase ORF preceded by a 5′UTR composed of 90 nucleotides derived from the plasmid and 267 nucleotides derived from the 5′UTR of ATF-4 mRNA. Transcription from the other direction generates an mRNA that contains the renilla luciferase ORF proceeded only by the 90-nucleotide plasmid-derived sequence in the 5′UTR. This expression plasmid is called pBISA-DL(ATF-4). In the dual luciferase assay, cells expressing firefly and renilla luciferases were lysed and the extracts assayed with a Dual-Glo Luciferase assay kit, per manufacturer's instruction (Promega Inc., Madison, Wis.). The data calculations were carried out as the ratio of firefly to renilla luciferase signal as described in Chen, T.; Ozel, D.; Qiao, Y.; Harbinski, F.; Chen, L.; Denoyelle, S.; He, X.; Zvereva, N.; Supko, J. G.; Chorev, M.; Halperin, J. A.; Aktas, B. H. Nat. Chem. Biol. 2011, 7, 610 hereby incorporated by reference.

**Q.** With `CC(C)(C)c1ccc(O)c(C2(c3cc(C(C)(C)C)ccc3OCCN3CCCCC3)C(=O)Nc3ccccc32)c1` (stereo not drawn) [HY072] as the molecule, how does the maximal fold induction at 20 µM read?
**A.** The maximal fold induction at 20 µM was 4.15 ± 0.5.

**Q.** For `CN(C)CCOc1ccc(C(C)(C)C)cc1C1(c2cc(C(C)(C)C)ccc2O)C(=O)Nc2ccccc21` (stereo not drawn) [HY077], which maximal fold induction at 20 µM is on record?
**A.** The maximal fold induction at 20 µM was 4.65 ± 0.88.

**Q.** `CN1CCN(CCOc2ccc(C(C)(C)C)cc2C2(c3cc(C(C)(C)C)ccc3O)C(=O)Nc3ccccc32)CC1` (stereo not drawn) [HY080] was tested. Which maximal fold induction at 20 µM did it give?
**A.** Its maximal fold induction at 20 µM is 24.6 ± 3.37.

Same assay, conditions: Mus musculus, 80 uM, read-out: ATF-4 Xmax

**Q.** How did the maximal fold induction at 80 µM turn out when `CC(C)(C)c1ccc(O)c(C2(c3cccnc3)C(=O)Nc3ccccc32)c1` (stereo not drawn) [HY003, 3-(5-tert-Butyl-2-Hydroxyphenyl)-3-(Pyridin-3-yl)Indolin-2-One] was run?
**A.** The maximal fold induction at 80 µM was 1.67.

**Q.** For `CC(C)(C)c1ccc(O)c(C2(c3ccc(CN4CCOCC4)cc3)C(=O)Nc3ccccc32)c1` (stereo not drawn) [HY016, 3-(5-tert-butyl-2-hydroxyphenyl)-3-(4-(Morpholinomethyl)phenyl)Indolin-2-One], which maximal fold induction at 80 µM is on record?
**A.** Its maximal fold induction at 80 µM is 8.5 ± 5.3.

**Q.** For `CC(C)Oc1ccc(O)c(C2(c3cc(OC(C)C)ccc3O)C(=O)Nc3ccccc32)c1` [HY037, 3,3-Bis(2-Hydroxy-5-Isopropoxyphenyl)Indolin-2-One], which maximal fold induction at 80 µM is on record?
**A.** The maximal fold induction at 80 µM was 2.79 ± 0.9.

System: KLN
Assay: Cell growth assay (sulforhodamine B), KLN cells
Format: cell-based, mouse
Details: Mus musculus, 120 h, 5 days, SRB
Description: […] Plates were then incubated with 0.4% SRB in 1% acetic acid for 1 h, washed with 1% acetic acid to remove the unbound dye, and air-dried. The bound dye was solubilized by addition of 10 mM Tris (pH 10), and the absorbance was determined in a Titertek Multiscan plate reader at 490 nm. The data calculations were carried out as described (the values for mean±SD of data from replicate wells are calculated): data are expressed in terms of % T/C [(OD of treated cells/OD of control cells)×100], as a measure of cell viability and survival in the presence of test materials. Calculations are also made for the concentration of test agents giving a T/C value of 50%, or 50% growth inhibition (IC50). With the SRB assay, a measure is made of the cell population density at time 0 (the time at which drugs are added) from two extra reference plates of inoculated cells fixed with TCA just prior to drug addition to the test plates. Thus, we have three measurements: control optical density (C), test optical density (T), and optical density at time zero (T0). The calculation is 100×[(T−T0)/(C−T0)]. If T is less than T0, cell killing has occurred and can be calculated from 100×[(T−T0)/T0]. Thus, for each drug-cell line combination, a dose-response curve is generated and three levels of effect are calculated.

**Q.** For `CC(C)(C)c1ccc(O)c(C2(c3cccnc3)C(=O)Nc3ccccc32)c1` (stereo not drawn) [HY003, 3-(5-tert-Butyl-2-Hydroxyphenyl)-3-(Pyridin-3-yl)Indolin-2-One], which IC50 is on record?
**A.** The IC50 was greater than 20 µM.

**Q.** With `CC(C)(C)c1ccc(O)c(C2(c3ccc(CN4CCOCC4)cc3)C(=O)Nc3ccccc32)c1` (stereo not drawn) [HY016, 3-(5-tert-butyl-2-hydroxyphenyl)-3-(4-(Morpholinomethyl)phenyl)Indolin-2-One] as the molecule, how does the IC50 read?
**A.** Its IC50 is 17.3 ± 2.4 µM.

**Q.** `CC(C)Oc1ccc(O)c(C2(c3cc(OC(C)C)ccc3O)C(=O)Nc3ccccc32)c1` [HY037, 3,3-Bis(2-Hydroxy-5-Isopropoxyphenyl)Indolin-2-One] was tested. Which IC50 did it give?
**A.** The IC50 was greater than 20 µM.

**Q.** For `CC(C)(C)c1ccc(O)c(C2(c3cc(C(C)(C)C)ccc3OCCN3CCCCC3)C(=O)Nc3ccccc32)c1` (stereo not drawn) [HY072], which IC50 is on record?
**A.** Its IC50 is 2.9 ± 0.4 µM.

**Q.** How did the IC50 turn out when `CN(C)CCOc1ccc(C(C)(C)C)cc1C1(c2cc(C(C)(C)C)ccc2O)C(=O)Nc2ccccc21` (stereo not drawn) [HY077] was run?
**A.** The IC50 was 1.7 ± 0.9 µM.

**Q.** With `CN1CCN(CCOc2ccc(C(C)(C)C)cc2C2(c3cc(C(C)(C)C)ccc3O)C(=O)Nc3ccccc32)CC1` (stereo not drawn) [HY080] as the molecule, how does the IC50 read?
**A.** Its IC50 is 2.9 ± 0.8 µM.

System: CRL-2813
Assay: Cell growth assay (sulforhodamine B), CRL-2813 cells
Format: cell-based, human
Details: Homo sapiens, CRL2813, 120 h, 5 days, SRB
Description: (§1) Adherent mouse (KLN) and human solid tumor cells (CRL-2351, and CRL-2813) were plated in 96-well plates and maintained for 5 days in the presence of 0.54 to 6 μM of individual compound, and cell proliferation was measured by the sulforhodamine B (SRB) assay as described in ref. 11: briefly, cells were fixed in 10% cold trichloroacetic acid at 4° C. for 1 h, extensively washed with double-distilled H2O and air-dried. Plates were then incubated with 0.4% SRB in 1% acetic acid for 1 h, washed with 1% acetic acid to remove the unbound dye, and air-dried. The bound dye was solubilized by addition of 10 mM Tris (pH 10), and the absorbance was determined in a Titertek Multiscan plate reader at 490 nm. The data calculations were carried out as described (the values for mean±SD of data from replicate wells are calculated): data are expressed in terms of % T/C [(OD of treated cells/OD of control cells)×100], as a measure of cell viability and survival in the presence of test materials. Calculations are also made for the concentration of test agents giving a T/C value of 50%, or 50% growth inhibition (IC50). With the SRB assay, a measure is made of the cell population density at time 0 (the time at which drugs are added) from two extra reference plates of inoculated cells fixed with TCA just prior to drug addition to the test plates. Thus, we have three measurements: control optical density (C), test optical density (T), and optical density at time zero (T0). The calculation is 100×[(T−T0)/(C−T0)]. If T is less than T0, cell killing has occurred and can be calculated from 100×[(T−T0)/T0]. Thus, for each drug-cell line combination, a dose-response curve is generated and three levels of effect are calculated.

**Q.** For `CC(C)(C)c1ccc(O)c(C2(c3cccnc3)C(=O)Nc3ccccc32)c1` (stereo not drawn) [HY003, 3-(5-tert-Butyl-2-Hydroxyphenyl)-3-(Pyridin-3-yl)Indolin-2-One], which IC50 is on record?
**A.** The IC50 was 11.5 ± 1.8 µM.

**Q.** For `CC(C)(C)c1ccc(O)c(C2(c3ccc(CN4CCOCC4)cc3)C(=O)Nc3ccccc32)c1` (stereo not drawn) [HY016, 3-(5-tert-butyl-2-hydroxyphenyl)-3-(4-(Morpholinomethyl)phenyl)Indolin-2-One], which IC50 is on record?
**A.** The IC50 was 7.8 ± 0.66 µM.

**Q.** `CC(C)Oc1ccc(O)c(C2(c3cc(OC(C)C)ccc3O)C(=O)Nc3ccccc32)c1` [HY037, 3,3-Bis(2-Hydroxy-5-Isopropoxyphenyl)Indolin-2-One] was tested. Which IC50 did it give?
**A.** Its IC50 is 5.6 ± 0.8 µM.

**Q.** How did the IC50 turn out when `CC(C)(C)c1ccc(O)c(C2(c3cc(C(C)(C)C)ccc3OCCN3CCCCC3)C(=O)Nc3ccccc32)c1` (stereo not drawn) [HY072] was run?
**A.** Its IC50 is 3.35 ± 0.5 µM.

**Q.** `CN(C)CCOc1ccc(C(C)(C)C)cc1C1(c2cc(C(C)(C)C)ccc2O)C(=O)Nc2ccccc21` (stereo not drawn) [HY077] was tested. Which IC50 did it give?
**A.** The IC50 was 1.2 ± 0.4 µM.

**Q.** `CN1CCN(CCOc2ccc(C(C)(C)C)cc2C2(c3cc(C(C)(C)C)ccc3O)C(=O)Nc3ccccc32)CC1` (stereo not drawn) [HY080] was tested. Which IC50 did it give?
**A.** Its IC50 is 1.4 ± 0.5 µM.

System: CRL-2351
Assay: Cell growth assay (sulforhodamine B), CRL-2351 cells
Format: cell-based, human
Details: Homo sapiens, 120 h, 5 days, SRB
Description: as §1

**Q.** `CC(C)(C)c1ccc(O)c(C2(c3cccnc3)C(=O)Nc3ccccc32)c1` (stereo not drawn) [HY003, 3-(5-tert-Butyl-2-Hydroxyphenyl)-3-(Pyridin-3-yl)Indolin-2-One] was tested. Which IC50 did it give?
**A.** Its IC50 is 6.4 ± 3 µM.

**Q.** How did the IC50 turn out when `CC(C)(C)c1ccc(O)c(C2(c3ccc(CN4CCOCC4)cc3)C(=O)Nc3ccccc32)c1` (stereo not drawn) [HY016, 3-(5-tert-butyl-2-hydroxyphenyl)-3-(4-(Morpholinomethyl)phenyl)Indolin-2-One] was run?
**A.** The IC50 was 7.3 ± 3.6 µM.

**Q.** Which IC50 does the source give for `CC(C)Oc1ccc(O)c(C2(c3cc(OC(C)C)ccc3O)C(=O)Nc3ccccc32)c1` [HY037, 3,3-Bis(2-Hydroxy-5-Isopropoxyphenyl)Indolin-2-One] here?
**A.** The IC50 was 3.6 ± 0.6 µM.

**Q.** `CC(C)(C)c1ccc(O)c(C2(c3cc(C(C)(C)C)ccc3OCCN3CCCCC3)C(=O)Nc3ccccc32)c1` (stereo not drawn) [HY072] was tested. Which IC50 did it give?
**A.** The IC50 was 0.7 ± 0.1 µM.

**Q.** For `CN(C)CCOc1ccc(C(C)(C)C)cc1C1(c2cc(C(C)(C)C)ccc2O)C(=O)Nc2ccccc21` (stereo not drawn) [HY077], which IC50 is on record?
**A.** Its IC50 is 1.9 ± 1 µM.

**Q.** With `CN1CCN(CCOc2ccc(C(C)(C)C)cc2C2(c3cc(C(C)(C)C)ccc3O)C(=O)Nc3ccccc32)CC1` (stereo not drawn) [HY080] as the molecule, how does the IC50 read?
**A.** The IC50 was 0.75 ± 0.1 µM.
